Laboratory results: patent US5202351A, “1-phenylalkyl-3-phenylurea derivative” (Mitsubishi Kasei Corporation, priority 1990, dated 1993)

Legend:
ACAT = target: T1, ACAT (Mesocricetus auratus, UniProt A0A1U8BU94); experiment: ACAT inhibitory action (cholesteryl oleate formation from radio-labelled oleoyl coenzyme A, liver microsome); type: biochemical; settings: hamster liver microsome; inhibition of cholesteryl oleate formation
T1 construct: each tissue specimen containing hamster liver microsome; from tissue; host or cells: hamster liver microsomes
T1 sequence (A0A1U8BU94 1-521): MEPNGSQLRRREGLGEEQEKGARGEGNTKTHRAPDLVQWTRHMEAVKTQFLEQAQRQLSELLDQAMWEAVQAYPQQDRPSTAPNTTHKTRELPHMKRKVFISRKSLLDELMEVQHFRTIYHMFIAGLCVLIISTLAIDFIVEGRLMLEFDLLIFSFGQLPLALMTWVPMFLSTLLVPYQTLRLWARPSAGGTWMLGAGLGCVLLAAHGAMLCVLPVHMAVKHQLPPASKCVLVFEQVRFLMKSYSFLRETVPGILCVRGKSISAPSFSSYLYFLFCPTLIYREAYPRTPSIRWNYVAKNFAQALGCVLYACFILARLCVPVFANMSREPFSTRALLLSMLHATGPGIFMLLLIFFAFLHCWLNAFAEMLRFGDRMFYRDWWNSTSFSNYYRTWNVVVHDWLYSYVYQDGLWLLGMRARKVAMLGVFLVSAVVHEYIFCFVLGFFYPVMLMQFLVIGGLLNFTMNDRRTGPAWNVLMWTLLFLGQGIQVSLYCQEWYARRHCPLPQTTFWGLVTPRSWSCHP
Method: The ACAT inhibitory action of the compounds of this invention was determined by the following method.
ACAT activity was determined by measuring the amount of ratio-active cholesteryl oleate formed from radio-labelled oleoyl coenzyme A in each tissue specimen containing hamster liver microsome. The reduction rates (%) in the amount of formation of cholesteryl oleate by the administration of the test compound in various concentrations (μM) as compared with as compared with the amount of formation in the control group to which no test compound was administrated were measured. The ACAT inhibitory action was evaluated by IC50, the concentration of the test compound necessary for inhibiting the activity of the enzyme by 50%, obtained from the reduction rates.

[1] = test system: cholesterol level in the serum; experiment: effect of reducing a lipid level in blood (serum cholesterol) in hamsters fed diet containing 1% cholesterol and 0.5% cholic acid; type: in vivo, golden hamster (male); settings: percent inhibition of serum cholesterol relative to control, 1 mg/10 ml water/kg orally once a day, blood taken on fifth day 3 h after final administration; for inhibition in vivo at 1 mg/kg: Mesocricetus auratus, po, once a day, read-out: Reduction of Cholesterol in Blood
Method: The effect of reducing a lipid level in blood by the action of the compounds according to the present invention was determined as follows:
Male golden hamsters weighing from 80 to 100 g were randomly divided into groups. The hamsters were first fed standard laboratory diets (solid feed MF-1 for mouse/rat/hamster, manufactured by Oriental yeast Industries, KK) for 3 days. Then, they were fed the experimental diet containing 1% cholesterol and 0.5% cholic acid ad libitum. At the same time, the compounds of the invention formulated in a shown dose (1 mg/10 ml water/kg) were administrated to the hamsters orally once a day at a determined time. Water was administrated orally to the hamsters of control group in an amount of 10 ml per 1 kg of body weight. On fifth day of administrating the compounds, the hamsters were anesthetized with nembutal (Nembutal injection, manufactured by Dainabbot) three hours after the final administration of the test compound, and a blood sample was taken from abdominal cava. The serum was separated from the sample by centrifuging.
The cholesterol level in the serum was determined by using a blood cholesterol measuring kit, Determina-TC5 manufactured by Kyowa Medix Co. The results are represented by percent inhibition (%) of cholesterol level in serum relative to that of the control group, and shown in the following Table 20.

[2] = test system: cholesterol level in the serum; experiment: as above; type: in vivo, golden hamster (male); settings: Mesocricetus auratus, po, 120 h, comparison compound; dose of 5 mg/kg p.o.; read-out: Reduction of Cholesterol in Blood

Structure (SMILES) | IC50 (ACAT) [nM] | inhibition in vivo at 1 mg/kg [1] [%] | other results
CCCCCC(CNC(=O)Nc1c(Cl)cccc1Cl)c1cccc2c1OCO2 (stereo not shown) [Example 34, 1-(2-(2,3-methylenedioxyphenyl)heptyl)-3-(2,6-dichlorophenyl)urea] | 34 | – | –
CCCCC(CNC(=O)Nc1c(C(C)C)cccc1C(C)C)c1cc(OC)c2c(c1)OCO2 (stereo not shown) [Example 52, 1-(2-(3,4-methylenedioxy-5-methoxyphenyl)hexyl)-3-(2,6-diisopropylphenyl)urea] | – | 15 | –
CC(C)c1cccc(C(C)C)c1NC(=O)NCC(c1ccccc1)C(C)(C)C (stereo not shown) [Comparison, 1-(3,3-dimethyl-2-phenylbutyl)-3-(2,6-diisopropylphenyl)urea] | – | – | inhibition in vivo at 5 mg/kg [2]: 5%
CCCCCC(CNC(=S)Nc1c(C(C)C)cccc1C(C)C)c1cccc2c1OCO2 (stereo not shown) [Example 54, 1-(2-(2,3-methylenedioxyphenyl)heptyl)-3-(2,6-diisopropylphenyl)thiourea] | – | 21 | –
CCCCC(CNC(=O)Nc1c(C(C)C)cccc1C(C)C)c1ccc2c(c1)OCCO2 (stereo not shown) [Example 23] | 13 | 39 | –
CCCCC(CNC(=O)Nc1c(C(C)C)cccc1C(C)C)c1cccc2c1CCCC2 (stereo not shown) [Example 55, 1-(2-(2,3-tetramethylenephenyl)hexyl)-3-(2,6-diisopropylphenyl)urea] | – | 35 | –
CCCCCC(CNC(=O)Nc1c(C(C)C)cccc1C(C)C)c1cccc2c1OCO2 (single isomer, unassigned) [Example 64] | 12 | – | Reduction of Cholesterol in Blood [1]: 27%
CCCC(CNC(=O)Nc1c(C(C)C)cccc1C(C)C)c1cccc2c1OCO2 (stereo not shown) [Example 5] | 56 | – | –
CCCCCC(CNC(=O)Nc1c(CC)cccc1CC)c1cccc2c1OCO2 (stereo not shown) [Example 35] | 32 | – | –
CCCCCCC(CNC(=O)Nc1c(C(C)C)cccc1C(C)C)c1cccc2c1OCO2 (stereo not shown) [Example 8] | 11 | – | –
CCCCCC(CCCCC)(CNC(=O)Nc1c(C(C)C)cccc1C(C)C)c1cccc2c1OCO2 [Example 31] | – | 16 | –
CCCCCCC(CNC(=O)Nc1c(C(C)C)cccc1C(C)C)c1ccc2c(c1)OCCO2 (stereo not shown) [Example 25] | – | 39 | –
CCCCCC(CNC(=O)Nc1c(CC)cccc1C(C)CC)c1cccc2c1OCO2 (stereo not shown) [Example 36] | 26 | – | –
CCCCCC(CNC(=O)Nc1c(C(C)C)cccc1C(C)C)c1ccc2c(c1)OCCO2 (stereo not shown) [Example 24] | – | 41 | –
CCC(CC)(CNC(=O)Nc1c(C(C)C)cccc1C(C)C)c1cccc2c1OCO2 [Example 11] | 32 | 31 | –
CCCCC(CNC(=O)Nc1c(C(C)C)cccc1C(C)C)c1cccc2c1OCO2 (stereo not shown) [Example 6] | – | 40 | –
CCCCCC(CNC(=O)Nc1c(OC)cccc1OC)c1cccc2c1OCO2 (stereo not shown) [Example 48, 1-(2-(2,3-methylenedioxyphenyl)heptyl)-3-(2,6-dimethoxyphenyl)urea] | 20 | – | –
CCC(CNC(=O)Nc1c(C(C)C)cccc1C(C)C)c1cccc2c1OCO2 (stereo not shown) [Example 3] | 85 | – | –
CCCCC(CNC(=O)Nc1c(C(C)C)cccc1C(C)C)c1ccc2c(c1)OCCCO2 (stereo not shown) [Example 26] | – | 40 | –
CCCCCC(CNC(=O)Nc1c(C(C)C)cccc1C(C)C)c1cccc2c1OCO2 (single isomer, unassigned) [Example 63] | 5 | – | Reduction of Cholesterol in Blood [1]: 56%

Structure (SMILES) | IC50 (ACAT) [nM] | inhibition in vivo at 1 mg/kg [1] [%] | other results
CCCCC(CNC(=O)Nc1c(C(C)C)cccc1C(C)C)c1ccc2c(c1)OCO2 (single isomer, unassigned; (+)) [Example 61, (+)-1-(2-(3,4-methylenedioxyphenyl)-hexyl)-3-(2,6-diisopropylphenyl)urea] | – | 45 | –
CCCCCC(CNC(=O)Nc1c(C)cccc1C)c1cccc2c1OCO2 (stereo not shown) [Example 33, 1-(2-(2,3-methylenedioxyphenyl)heptyl)-3-(2,6-dimethylphenyl)urea] | 38 | – | –
CCCCCC(CNC(=O)Nc1c(C(C)C)cccc1C(C)C)c1cccc2c1OCO2 (stereo not shown) [Example 1, 1-(2-(2,3-methylenedioxyphenyl)heptyl)-3-(2,6-diisopropylphenyl)urea] | – | 34 | –
CCCC(CNC(=O)Nc1c(C(C)C)cccc1C(C)C)c1ccc2c(c1)OCO2 (stereo not shown) [Example 16] | – | 34 | –
CCCCC(CNC(=O)Nc1c(C(C)C)cccc1C(C)C)c1ccc2c(c1)OCO2 (single isomer, unassigned) [Example 62] | – | – | Reduction of Cholesterol in Blood [1]: 33%
CCCC(CCC)(CNC(=O)Nc1c(C(C)C)cccc1C(C)C)c1cccc2c1OCO2 [Example 30] | – | 18 | –
CCCCCC(C)(CNC(=O)Nc1c(C(C)C)cccc1C(C)C)c1cccc2c1OCO2 (stereo not shown) [Example 29] | 5 | 61 | –
CCCCCC(CNC(=O)Nc1c(C(C)C)cccc1C(C)C)c1cccc2c1CCCC2 (stereo not shown) [Example 56] | 4 | 42 | –
CCCCC(CNC(=O)Nc1c(C(C)C)cccc1C(C)C)c1cccc2c1CCCC2 (single isomer, unassigned) [Example 66] | 28 | – | Reduction of Cholesterol in Blood [1]: 40%
CCCCC(CNC(=O)Nc1c(C(C)C)cccc1C(C)C)c1ccc2c(c1)OCO2 (stereo not shown) [Example 17] | 9 | 34 | –
CCCCC(CNC(=O)Nc1c(C(C)C)cccc1C(C)C)c1cccc2c1CCCC2 (single isomer, unassigned) [Example 65] | 12 | 44 | –
CCCCCCCC(CNC(=O)Nc1c(C(C)C)cccc1C(C)C)c1cccc2c1OCO2 (stereo not shown) [Example 9] | 86 | – | –
CC(C)c1cccc(C(C)C)c1NC(=O)NCC1(c2cccc3c2OCO3)CCCC1 [Example 12] | – | 10 | –
CC(C)CCCC(CNC(=O)Nc1c(C(C)C)cccc1C(C)C)c1ccc2c(c1)OCO2 (stereo not shown) [Example 20] | – | 46 | –
CC(C)c1cccc(C(C)C)c1NC(=O)NCC1(c2cccc3c2OCO3)CCCCC1 [Example 13] | – | 19 | –
CCCCCC(CNC(=O)Nc1c(C(C)C)cccc1C(C)C)c1ccc2c(c1)OCO2 (stereo not shown) [Example 18] | – | 33 | –
CC(C)c1cccc(C(C)C)c1NC(=O)NCC(c1cccc2c1OCO2)C(C)C (stereo not shown) [Example 4] | 28 | – | –
CC(C)CCCC(CNC(=O)Nc1c(C(C)C)cccc1C(C)C)c1cccc2c1CCCC2 (stereo not shown) [Example 57] | – | 38 | –
CCCCCCC(CNC(=O)Nc1c(C(C)C)cccc1C(C)C)c1ccc2c(c1)OCO2 (stereo not shown) [Example 19] | – | 23 | –
CCCCC(CNC(=O)Nc1c(C(C)C)cccc1C(C)C)c1cccc2c1OCCO2 (stereo not shown) [Example 14] | – | 30 | –
